# “Also recorded” adds a separate entry of the source.
# Tests used:
# [1] = test system: alpha myosin HC presentation to DQ8 molecules; assay: Cardiac myosin-specific DQ8-restricted Clone E T cell hybridoma (BWZ.36.CE, lacZ/β-galactosidase readout) antigen presentation assay; type: cell-based, human; conditions: in vitro, dose-dependent, DQ8-expressing APCs
# Description: FIGS. 15A-C are data showing that the small molecule, tetraazatricyclododecane (TATD), that was predicted to bind pocket 6 of the DQ8 peptide-binding groove (Michels et al, Journal of immunology, 2011), inhibits cardiac myosin presentation by DQ8 to T cells. FIGS. 15A and B are graphs showing that T cell response to insulin B9:23 peptide, measured by IL-2 concentration, is blocked by TATD in a dose dependent manner, for DQ8 and I-Ag7 (Michels et al., Journal of Immunology, 2011). FIG. 15C is a graph showing that T cell response to cardiac myosin stimulation is blocked in vitro by TATD is a dose-dependent manner, in a manner similar to the blocking effect on insulin B9:23 presentation to DQ8. In this assay, T cell responses were measured using our cardiac myosin-specific DQ8-restricted (Clone E) T cell hybridoma that was engineered to produce β-galactosidase following T-cell receptor-antigen stimulation.
# To assess the potential efficacy in the setting of post-infarct autoimmunity, we created a lacZ-inducible alpha myosin HC-specific CD4^+ T-cell hybridoma by fusing Clone E, a pathogenic DQ8-restricted CD4^+ T cell clone isolated from a myocarditic heart (Lv H et al., J Clin Invest, 2011) (FIGS. 14A-D), and BWZ.36 fusion partner (Karttunen J et al., Proc Natl Acad Sci USA, 1992), and successfully generated the hybrid, BWZ.36.CE. […]
# [2] = test system: DQ8; conditions: cited from earlier work
# [3] = test system: I-Ag7; conditions: I-Ag7, dose dependent; cited from earlier work
# [4] = test system: NOD mice; conditions: cited from earlier work
smiles,measurement,setting,value
"C1CN2CN3CCN(CN1C3)C2 [TATD, tetraazatricyclododecane]",block of alpha myosin HC presentation to DQ8 molecules (T cell response to cardiac myosin stimulation),[1],completely block; also recorded: blocked
same,"T cell response to insulin B9:23 peptide, measured by IL-2 concentration","[2]; DQ8, dose dependent",blocked
same,relative potency of blocking DQ8 versus I-Ag7 molecules,[2]; DQ8 compared with I-Ag7,more potently blocks DQ8 than I-A^g7
same,"T cell response to insulin B9:23 peptide, measured by IL-2 concentration",[3],blocked
same,preventing T1D in NOD mice,[4],efficacious

# From patent US20140271694A1, “ANTIGEN-SPECIFIC METHODS OF DIAGNOSING AND/OR TREATING MYOCARDITIS OR INFLAMMATORY CARDIOMYOPATHY” (Joslin Diabetes Center, Inc., priority 2013, published 2014)
